Measured values published in patent US20130302825A1, “USES OF MACROPHAGE MANNOSE RECEPTOR TO SCREEN COMPOUNDS AND USES OF THESE COMPOUNDS” (Merck, priority 2010, published 2013).

Biological target: T1, mannose receptor (Rattus norvegicus, UniProt A0A8I5XVS2)
T1 construct: NR8383 rat alveolar macrophages were obtained from ATCC; host or cells: NR8383 rat alveolar macrophages
T1 sequence (A0A8I5XVS2 1-1431): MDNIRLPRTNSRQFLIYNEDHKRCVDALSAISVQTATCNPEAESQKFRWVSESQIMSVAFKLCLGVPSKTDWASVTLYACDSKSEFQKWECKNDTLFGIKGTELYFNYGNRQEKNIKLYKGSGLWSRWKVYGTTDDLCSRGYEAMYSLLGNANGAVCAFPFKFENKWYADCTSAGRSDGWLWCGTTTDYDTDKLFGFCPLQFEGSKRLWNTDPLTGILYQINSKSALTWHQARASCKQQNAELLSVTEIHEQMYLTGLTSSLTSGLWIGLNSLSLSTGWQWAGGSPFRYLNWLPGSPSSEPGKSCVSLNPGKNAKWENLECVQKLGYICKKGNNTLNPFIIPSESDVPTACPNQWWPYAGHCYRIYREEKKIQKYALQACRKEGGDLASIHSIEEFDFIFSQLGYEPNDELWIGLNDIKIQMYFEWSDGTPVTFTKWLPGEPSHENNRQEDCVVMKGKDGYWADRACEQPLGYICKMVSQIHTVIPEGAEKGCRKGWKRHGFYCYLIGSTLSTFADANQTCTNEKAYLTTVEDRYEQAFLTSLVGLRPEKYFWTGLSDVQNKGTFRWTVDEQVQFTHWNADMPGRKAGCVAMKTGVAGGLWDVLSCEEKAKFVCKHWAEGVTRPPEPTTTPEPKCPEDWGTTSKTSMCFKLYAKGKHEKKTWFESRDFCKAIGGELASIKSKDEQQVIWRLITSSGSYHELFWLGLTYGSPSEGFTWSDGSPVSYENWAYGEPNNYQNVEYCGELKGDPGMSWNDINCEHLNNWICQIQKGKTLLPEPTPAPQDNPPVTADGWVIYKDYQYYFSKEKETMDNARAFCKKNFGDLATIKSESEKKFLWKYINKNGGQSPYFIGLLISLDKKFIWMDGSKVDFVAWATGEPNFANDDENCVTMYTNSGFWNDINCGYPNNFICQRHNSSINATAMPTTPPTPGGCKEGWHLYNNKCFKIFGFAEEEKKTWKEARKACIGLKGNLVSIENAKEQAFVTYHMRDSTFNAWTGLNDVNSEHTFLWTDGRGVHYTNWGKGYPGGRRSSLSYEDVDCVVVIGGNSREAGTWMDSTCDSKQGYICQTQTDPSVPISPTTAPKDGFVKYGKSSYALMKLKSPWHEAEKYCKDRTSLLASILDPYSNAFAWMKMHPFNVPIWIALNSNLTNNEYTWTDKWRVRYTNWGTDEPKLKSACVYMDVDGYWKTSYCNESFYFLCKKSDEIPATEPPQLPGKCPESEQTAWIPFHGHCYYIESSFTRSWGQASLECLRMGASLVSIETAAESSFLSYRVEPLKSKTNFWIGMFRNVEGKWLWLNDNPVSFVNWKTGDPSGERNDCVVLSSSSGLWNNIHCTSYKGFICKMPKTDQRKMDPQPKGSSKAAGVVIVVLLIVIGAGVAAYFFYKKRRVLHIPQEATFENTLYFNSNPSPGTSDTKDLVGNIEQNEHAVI
Assay: Uptake of Alexa488-SI-0052 in NR8383 in the presence of competing sugars
Type: cell-based
Conditions: 250 nM Alexa488-SI-0052, varying sugar concentrations; FIG. 1b
Experimental: NR8383 rat alveolar macrophages were obtained from ATCC and cultured in gelatin coated flasks in F12K medium +15% heat inactivated FBS+antibiotics. For uptake experiments, NR8383 were seeded in gelatin coated 96 well plates and allowed to reach confluence. […] Each condition was carried out in triplicate. […] Cells were transferred to V-bottom 96 well plates and centrifuged (800 g, 7 min, 4C) to collect. Pellets were washed with cold 5 mM EDTA and again centrifuged. Cells were then resuspended in 1% paraformaldehyde in PBS and stored at 4C in the dark until analysis.
Uptake of Alexa488-SI-0052, as measured by cellular fluorescence, was assessed using flow cytometry (FACSCalibur). The geometric mean of fluorescence for 5000-10000 cells was measured for each sample. Mannose specific uptake was taken to be the difference between total uptake (without mannan) and the uptake in the presence of mannan (non-specific uptake).
The uptake of Alexa488-SI-0052 was measured, as described above, in the presence of various sugars known to have varying affinities for the mannose receptor. NR8383 were incubated with a constant concentration of Alexa488-SI-0052 (250 nM, chosen because this concentration lies on the concentration dependent portion of the Alexa488-SI-0052 uptake curve) and varying concentrations of α-methyl mannose (α-MM), glucose and galactose.

Compound	Interference with Alexa488-SI-0052 uptake (rank order)
O=C[C@H](O)[C@@H](O)[C@@H](O)[C@H](O)CO [galactose]	then galactose
COC1O[C@H](CO)[C@@H](O)[C@H](O)[C@@H]1O (stereo partly drawn) [α-MM, α-methyl mannose]	interferes the most
